Laboratory results taken from patent US12060347B2 (BRISTOL-MYERS SQUIBB COMPANY, priority 2016, dated 2024).
pIC50: −log10 of the molar value.

Biological target: T1, human PAR4 (Homo sapiens, UniProt Q96RI0)
T1 construct: expressed in transfected cells; host or cells: HEK293 PAR4 Clone 1.2A (BMS Arctic ID 383940)
T1 sequence (Q96RI0 18-385): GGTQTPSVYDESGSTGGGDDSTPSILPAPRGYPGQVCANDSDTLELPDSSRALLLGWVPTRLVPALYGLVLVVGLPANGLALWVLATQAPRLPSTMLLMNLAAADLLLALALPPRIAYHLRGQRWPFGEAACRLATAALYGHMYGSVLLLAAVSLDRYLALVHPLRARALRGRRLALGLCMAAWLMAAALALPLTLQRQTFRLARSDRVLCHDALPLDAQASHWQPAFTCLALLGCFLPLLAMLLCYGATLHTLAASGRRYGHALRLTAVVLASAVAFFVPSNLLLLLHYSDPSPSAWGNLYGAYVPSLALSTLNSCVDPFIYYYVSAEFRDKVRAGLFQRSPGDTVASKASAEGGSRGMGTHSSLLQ
Assay: PAR4 FLIPR assay: antagonism of agonist-peptide-induced calcium mobilization in PAR4-expressing HEK293 cells
Format: cell-based
Settings: H-Ala-Phe(4-F)-[…]NH2-induced intracellular calcium mobilization, 11-point curves

| pIC50 | SMILES |
| --- | --- |
| 8.82 | COc1cnc2c(-c3nc4cc(F)c(OCCOC(=O)Nc5cnc(F)c(C)c5)nc4s3)cc(C)cc2n1 [Example 811, 2-((6-fluoro-2-(2-methoxy-7-methylquinoxalin-5-yl)thiazolo[5,4-b]pyridin-5-yl)oxy) ethyl (6-fluoro-5-methylpyridin-3-yl)carbamate] |
| 8.15 | COc1cnc2c(-c3nc4c(C)cc(OCCOC(=O)Nc5ccc(-c6cccs6)nc5)nc4s3)cc(C)cc2n1 [Example 812, 2-((2-(2-methoxy-7-methylquinoxalin-5-yl)-7-methylthiazolo[5,4-b]pyridin-5-yl)oxy) ethyl (6-(thiophen-2-yl)pyridin-3-yl)carbamate] |
| 9.00 | CCOc1cnc2c(-c3nc4cc(F)c(OC[C@@H](C)OC(=O)Nc5cnc(C)nc5)nc4s3)cc(C)cc2n1 [Example 813, (R)-1-((2-(2-ethoxy-7-methylquinoxalin-5-yl)-6-fluorothiazolo[5,4-b]pyridin-5-yl)oxy)propan-2-yl (2-methylpyrimidin-5-yl)carbamate] |
| 8.14 | CCOc1cnc2c(-c3nc4cc(F)c(OC[C@@H](C)OC(=O)Nc5cnc(OCCO)nc5)nc4s3)cc(C)cc2n1 [Example 814, (R)-1-((2-(2-ethoxy-7-methylquinoxalin-5-yl)-6-fluorothiazolo[5,4-b]pyridin-5-yl)oxy)propan-2-yl (2-(2-hydroxyethoxy)pyrimidin-5-yl)carbamate] |
| 8.19 | CCOc1cnc2c(-c3nc4cc(F)c(OC[C@@H](C)OC(=O)Nc5cnc(OC[C@@H](C)O)nc5)nc4s3)cc(C)cc2n1 [Example 815, (R)-1-((2-(2-ethoxy-7-methylquinoxalin-5-yl)-6-fluorothiazolo[5,4-b]pyridin-5-yl)oxy) propan-2-yl (2-((R)-2-hydroxypropoxy)pyrimidin-5-yl)carbamate] |
| 8.00 | CCOc1cnc2c(-c3nc4cc(F)c(O[C@@H](C)[C@@H](C)OC(=O)Nc5cnc(CO)nc5)nc4s3)cc(C)cc2n1 [Example 816] |
| 8.44 | CCOc1cnc2c(-c3nc4c(C(O)C(C)(C)C)cc(OC)cc4s3)cc(C)cc2n1 (stereo not drawn) [Example 817, 1-(2-(2-ethoxy-7-methylquinoxalin-5-yl)-6-methoxybenzo[d]thiazol-4-yl)-2,2-dimethylpropan-1-ol] |
| 8.74 | COc1cnc2c(-c3nc4cc(F)c(OC[C@@H](C)OC(=O)Nc5ccc(C#N)nc5)cc4s3)cc(C#N)cc2n1 [Example 818, (R)-1-((2-(7-cyano-2-methoxyquinoxalin-5-yl)-5-fluorobenzo[d]thiazol-6-yl)oxy)propan-2-yl (6-cyanopyridin-3-yl)carbamate] |
| 8.92 | COc1cnc2c(-c3nc4cc(F)c(OC[C@@H](C)OC(=O)Nc5cnc(C)nc5)cc4s3)cc(C#N)cc2n1 [Example 819, (R)-1-((2-(7-cyano-2-methoxyquinoxalin-5-yl)-5-fluorobenzo[d]thiazol-6-yl)oxy)propan-2-yl (2-methylpyrimidin-5-yl)carbamate] |
| 8.77 | COc1cnc2c(-c3nc4cc(F)c(O[C@@H](C)[C@@H](C)OC(=O)Nc5cnc(OC)nc5)cc4s3)cc(Cl)cc2n1 [Example 820, (2R,3S)-3-((2-(7-chloro-2-methoxyquinoxalin-5-yl)-5-fluorobenzo[d]thiazol-6-yl)oxy)butan-2-yl (2-methoxypyrimidin-5-yl)carbamate] |
| 8.34 | COc1ccc(NC(=O)O[C@H](C)[C@H](C)Oc2cc3sc(-c4cc(Cl)cc5nc(OC)cnc45)nc3cc2F)cn1 [Example 821, (2R,3S)-3-((2-(7-chloro-2-methoxyquinoxalin-5-yl)-5-fluorobenzo[d]thiazol-6-yl)oxy)butan-2-yl (6-methoxypyridin-3-yl)carbamate] |
| 8.80 | COc1cnc2c(-c3nc4cc(F)c(O[C@@H](C)[C@@H](C)OC(=O)Nc5ccc(C)nc5)cc4s3)cc(Cl)cc2n1 [Example 822, (2R,3S)-3-((2-(7-chloro-2-methoxyquinoxalin-5-yl)-5-fluorobenzo[d]thiazol-6-yl)oxy)butan-2-yl (6-methylpyridin-3-yl)carbamate] |
| 8.29 | COc1cnc2c(-c3nc4cc(F)c(O[C@@H](C)[C@@H](C)OC(=O)Nc5ccc(C)nc5)cc4s3)cc(C#N)cc2n1 [Example 823, (2R,3S)-3-((2-(7-cyano-2-methoxyquinoxalin-5-yl)-5-fluorobenzo[d]thiazol-6-yl)oxy)butan-2-yl (6-methylpyridin-3-yl)carbamate] |
| 8.82 | COc1cnc2c(-c3nc4cc(F)c(O[C@@H](C)[C@@H](C)OC(=O)Nc5cnc(C)nc5)cc4s3)cc(Cl)cc2n1 [Example 824, (2R,3S)-3-((2-(7-chloro-2-methoxyquinoxalin-5-yl)-5-fluorobenzo[d]thiazol-6-yl)oxy)butan-2-yl (2-methylpyrimidin-5-yl)carbamate] |
| 8.10 | COc1cnc2c(-c3nc4cc(F)c(O[C@@H](C)[C@@H](C)OC(=O)Nc5cnc(C)nc5)cc4s3)cc(C#N)cc2n1 [Example 825, (2R,3S)-3-((2-(7-cyano-2-methoxyquinoxalin-5-yl)-5-fluorobenzo[d]thiazol-6-yl)oxy)butan-2-yl (2-methylpyrimidin-5-yl)carbamate] |
| 8.72 | COc1cnc2c(-c3nc4cc(F)c(O[C@@H](C)[C@@H](C)OC(=O)Nc5cncc(C#N)c5)cc4s3)cc(Cl)cc2n1 [Example 826, (2R,3S)-3-((2-(7-chloro-2-methoxyquinoxalin-5-yl)-5-fluorobenzo[d]thiazol-6-yl)oxy)butan-2-yl (5-cyanopyridin-3-yl)carbamate] |
| 8.21 | Cc1cc(-c2nc3cc(F)c(O[C@@H](C)[C@@H](C)OC(=O)Nc4cnc(C)nc4)cc3s2)c2ncc(OCC(F)F)nc2c1 [Example 827, (2R,3S)-3-((2-(2-(2,2-difluoroethoxy)-7-methylquinoxalin-5-yl)-5-fluorobenzo[d]thiazol-6-yl)oxy)butan-2-yl (2-methylpyrimidin-5-yl)carbamate] |
| 9.15 | COc1cnc2c(-c3nc4cc(F)c(O[C@@H](C)[C@@H](C)OC(=O)Nc5ccc(C#N)nc5)cc4s3)cc(C#N)cc2n1 [Example 828, (2R,3S)-3-((2-(7-cyano-2-methoxyquinoxalin-5-yl)-5-fluorobenzo[d]thiazol-6-yl)oxy)butan-2-yl (6-cyanopyridin-3-yl)carbamate] |
| 9.22 | COc1cnc2c(-c3nc4cc(F)c(O[C@@H](C)[C@@H](C)OC(=O)Nc5ccc(C#N)nc5)cc4s3)cc(Cl)cc2n1 [Example 829, (2R,3S)-3-((2-(7-chloro-2-methoxyquinoxalin-5-yl)-5-fluorobenzo[d]thiazol-6-yl)oxy)butan-2-yl (6-cyanopyridin-3-yl)carbamate] |
| 8.80 | COC(=O)c1ccc(NC(=O)O[C@H](C)[C@H](C)Oc2cc3sc(-c4cc(Cl)cc5nc(OC)cnc45)nc3cc2F)cn1 [Example 830, methyl 5-(((((2R,3S)-3-((2-(7-chloro-2-methoxyquinoxalin-5-yl)-5-fluorobenzo[d]thiazol-6-yl)oxy)butan-2-yl)oxy)carbonyl)amino)picolinate] |
| 8.66 | COc1cnc2c(-c3nc4cc(F)c(O[C@@H](C)[C@@H](C)OC(=O)Nc5ccc(CO)nc5)cc4s3)cc(Cl)cc2n1 [Example 831, (2R,3S)-3-((2-(7-chloro-2-methoxyquinoxalin-5-yl)-5-fluorobenzo[d]thiazol-6-yl)oxy)butan-2-yl (6-(hydroxymethyl)pyridin-3-yl)carbamate] |
| 8.60 | CNC(=O)c1ccc(NC(=O)O[C@H](C)[C@H](C)Oc2cc3sc(-c4cc(Cl)cc5nc(OC)cnc45)nc3cc2F)cn1 [Example 832, (2R,3S)-3-((2-(7-chloro-2-methoxyquinoxalin-5-yl)-5-fluorobenzo[d]thiazol-6-yl)oxy)butan-2-yl (6-(methylcarbamoyl)pyridin-3-yl)carbamate] |
| 8.80 | COc1cnc2c(-c3nc4cc(F)c(O[C@@H](C)[C@@H](C)OC(=O)Nc5ccc(C(N)=O)nc5)cc4s3)cc(Cl)cc2n1 [Example 833, (2R,3S)-3-((2-(7-chloro-2-methoxyquinoxalin-5-yl)-5-fluorobenzo[d]thiazol-6-yl)oxy) butan-2-yl (6-carbamoylpyridin-3-yl)carbamate] |
| 8.52 | COc1cnc2c(-c3nc4cc(F)c(O[C@@H](C)[C@@H](C)OC(=O)Nc5ccc(C(=O)N(C)C)nc5)cc4s3)cc(Cl)cc2n1 [Example 834, (2R,3S)-3-((2-(7-chloro-2-methoxyquinoxalin-5-yl)-5-fluorobenzo[d]thiazol-6-yl)oxy)butan-2-yl (6-(dimethylcarbamoyl)pyridin-3-yl)carbamate] |
| 9.30 | COc1cnc2c(-c3nc4cc(F)c(O[C@@H](C)[C@@H](C)OC(=O)Nc5ccc(CC(C)(C)O)nc5)cc4s3)cc(Cl)cc2n1 [Example 835, (2R,3S)-3-((2-(7-chloro-2-methoxyquinoxalin-5-yl)-5-fluorobenzo[d]thiazol-6-yl)oxy)butan-2-yl (6-(2-hydroxy-2-methylpropyl)pyridin-3-yl)carbamate] |
| 8.92 | COc1cnc2c(-c3nc4cc(F)c(O[C@@H](C)[C@@H](C)OC(=O)Nc5ccc(CCO)nc5)cc4s3)cc(Cl)cc2n1 [Example 836, (2R,3S)-3-((2-(7-chloro-2-methoxyquinoxalin-5-yl)-5-fluorobenzo[d]thiazol-6-yl)oxy)butan-2-yl (6-(2-hydroxyethyl)pyridin-3-yl)carbamate] |
| 7.77 | COc1cc(C)c2nc(-c3cc(Cl)cc4nc(OC)cnc34)sc2c1 [Example 837, 2-(7-chloro-2-methoxyquinoxalin-5-yl)-6-methoxy-4-methylbenzo[d]thiazole] |
